How the values were obtained:
Type in all cases: functional, cell-based
MDA-MB-231 = experiment: Antiproliferative activity against human MDA-MB-231 cells assessed as reduction in cell viability by SRB assay
MCF7 = experiment: Antiproliferative activity against human MCF7 cells assessed as reduction in cell viability by SRB assay
KB = experiment: Antiproliferative activity against human KB cells assessed as reduction in cell viability by SRB assay
[1] = Antiproliferative activity against human KB-VIN cells over expressing p-gp assessed as reduction in cell viability by SRB assay; conditions: KBVIN
A549 = experiment: Antiproliferative activity against human A549 cells assessed as reduction in cell viability by SRB assay

SMILES	IC50 (MDA-MB-231) [µM]	IC50 (MCF7) [µM]	IC50 (KB) [µM]	IC50 (A549) [µM]	IC50 [1] [µM]
C[C@H](C/C=C/C(C)(C)O)[C@H]1CC[C@@]2(C)[C@@H]3CC[C@H]4C(C)(C)[C@H](O)CC[C@@]45C[C@@]35CC[C@]12C	9.3	> 10	> 10	> 10	> 10
C=C1CC[C@@H]2[C@H]([C@H]3[C@@H]1CC[C@]3(C)O)[C@@]2(C)CCC=C(C)C	> 10	> 10	> 10	> 10	> 10
CC(C)CC(=O)[C@@H](O)[C@H](C)[C@@H]1CC[C@]2(C)C3=CC[C@H]4C(C)(C)C(=O)CC[C@]4(C)[C@H]3CC[C@@]12C	> 10	> 10	> 10	> 10	> 10
CC(C)=CC(=O)C[C@@H](C)[C@H]1CC[C@@]2(C)[C@@H]3CC[C@H]4C(C)(C)[C@@H](O)CC[C@@]45C[C@@]35CC[C@]12C	> 10	> 10	> 10	> 10	> 10
CC(C)=CCC[C@]1(C)[C@H]2[C@@H]3[C@H](C)CC[C@H]3[C@](C)(O)CC[C@H]21	> 10	> 10	8.9	8.9	> 10
C[C@@H](C[C@@H](O)[C@@H]1OC1(C)C)[C@@H]1CC[C@]2(C)C3=CC[C@H]4C(C)(C)C(=O)CC[C@]4(C)[C@H]3CC[C@@]12C	7.1	6.9	4.6	5.9	6.1
C[C@@H]([C@@H]1O[C@@H]1[C@@H]1OC1(C)C)[C@@H]1CC[C@]2(C)C3=CC[C@H]4C(C)(C)C(=O)CC[C@]4(C)[C@H]3CC[C@@]12C	> 10	> 10	8.1	5.4	8.3
CC(C)=C[C@H]1C[C@H]([C@H]2CC[C@@]3(C)[C@@H]4CC[C@H]5C(C)(C)C(=O)CC[C@@]56C[C@@]46CC[C@]23C)CO1	> 10	> 10	> 10	> 10	> 10
CC(C)=C[C@H](O)C[C@@H](CO)[C@H]1CC[C@@]2(C)[C@@H]3CC[C@H]4C(C)(C)C(=O)CC[C@@]45C[C@@]35CC[C@]12C (mixture of isomers)	> 10	> 10	> 10	> 10	9.9
C[C@H]([C@H]1OC(C)(C)[C@@H](O)[C@@H]1O)[C@@H]1CC[C@]2(C)C3=CC[C@H]4C(C)(C)C(=O)CC[C@]4(C)[C@H]3CC[C@@]12C (relative stereo)	> 10	> 10	> 10	> 10	> 10
CC(C)(O)[C@@H]1CC[C@H]([C@H]2CC[C@@]3(C)[C@@H]4CC[C@H]5C(C)(C)C(=O)CC[C@@]56C[C@@]46CC[C@]23C)CO1 (relative stereo)	> 10	> 10	> 10	9.1	> 10
C[C@H](C[C@@H](O)[C@@H]1OC1(C)C)[C@H]1CC[C@@]2(C)[C@@H]3CC[C@H]4C(C)(C)C(=O)CC[C@@]45C[C@@]35CC[C@]12C (relative stereo)	> 10	> 10	> 10	> 10	> 10

Now from value to compound, other results behind:

IC50 (MDA-MB-231) [µM]	IC50 (MCF7) [µM]	IC50 (KB) [µM]	IC50 (A549) [µM]	SMILES	IC50 [1] [µM]
> 10	> 10	> 10	9.6	C[C@H](C/C=C/C(C)(C)O)[C@H]1CC[C@@]2(C)[C@@H]3CC[C@H]4C(C)(C)C(=O)CC[C@@]45C[C@@]35CC[C@]12C	> 10
> 10	> 10	8.2	8	C[C@@H](C[C@@H](O)[C@H](O)C(C)(C)O)[C@@H]1CC[C@]2(C)C3=CC[C@H]4C(C)(C)[C@@H](O)CC[C@]4(C)[C@H]3CC[C@@]12C	9.7
> 10	> 10	> 10	> 10	CC(C)=C[C@@H]1C[C@H]([C@H]2CC[C@@]3(C)[C@@H]4CC[C@H]5C(C)(C)C(=O)CC[C@@]56C[C@@]46CC[C@]23C)CO1	> 10
> 10	> 10	9	> 10	C[C@@H]([C@H](O)/C=C/C(C)(C)O)[C@@H]1CC[C@]2(C)C3=CC[C@H]4C(C)(C)C(=O)CC[C@]4(C)[C@H]3CC[C@@]12C	9.5
> 10	> 10	> 10	> 10	C=C[C@]1(C)C=C2C(=O)CC3C(C)(C)CCC[C@]3(C)C2CC1 (stereo partly drawn)	> 10
> 10	> 10	> 10	> 10	CC(C)=CC(O)C[C@H](C)[C@@H]1CC[C@]2(C)C3=CCC4C(C)(C)[C@@H](O)CC[C@]4(C)[C@H]3CC[C@@]12C (stereo partly drawn)	> 10
> 10	> 10	9.5	8.3	CC1(C)OCC([C@@H]2CC[C@]3(C)C4=CC[C@H]5C(C)(C)C(=O)CC[C@]5(C)[C@H]4CC[C@@]23C)C[C@@H](O)[C@@H]1O (stereo partly drawn)	7.9
> 10	> 10	> 10	> 10	C=C[C@]1(C)C=C2C(CC1)[C@@]1(C)CCCC(C)(C)C1C[C@@H]2O (stereo partly drawn)	> 10
> 10	> 10	> 10	> 10	CC1(C)C(=O)CC[C@@]2(C)C1CC=C1[C@@H]2CC[C@@]2(C)[C@H](C3CO[C@@H](C(C)(C)O)[C@H](O)C3)CC[C@]12C (stereo partly drawn)	> 10
> 10	> 10	> 10	> 10	CC(=O)O[C@H]1[C@@H](OC(C)=O)[C@@]2(C)C3=CC[C@@H]([C@H]4COC(=O)C4)[C@]3(C)CC[C@@H]2[C@@]2(C)[C@@H](O)C[C@@H](O)C(C)(C)[C@H]12	> 10
> 10	> 10	> 10	> 10	CC(C)=CC(=O)C[C@@H](C)[C@H]1CC[C@@]2(C)[C@@H]3CC[C@H]4C(C)(C)C(=O)CC[C@@]45C[C@@]35CC[C@]12C	> 10
7.4	> 10	3.9	6.5	CC(C)=CCC[C@@H](CO)[C@H]1CC[C@@]2(C)[C@@H]3CC[C@H]4C(C)(C)C(=O)CC[C@@]45C[C@@]35CC[C@]12C	6.2
4.7	7.2	4.8	5.2	C[C@@H](C[C@@H](O)[C@@H]1OC1(C)C)[C@@H]1CC[C@]2(C)C3=CC[C@H]4C(C)(C)[C@@H](O)CC[C@]4(C)[C@H]3CC[C@@]12C [DIHYDRONILOTICIN]	5.1
0.0084	–	0.0071	–	CC(=O)O[C@H]1C(=O)[C@@]2(C)[C@H]([C@H](OC(=O)c3ccccc3)[C@]3(O)C[C@H](OC(=O)[C@H](O)[C@@H](NC(=O)c4ccccc4)c4ccccc4)C(C)=C1C3(C)C)[C@]1(OC(C)=O)CO[C@@H]1C[C@@H]2O [PACLITAXEL]	2.21

From ChEMBL document CHEMBL5576099, “Isolation, Characterization, and Antiproliferative Activity of Terpenoids from the Tropical Plant Turraea delphinensis” (J Nat Prod, 2024)
